Test results as given in PubChem BioAssay AID1963874 (Molecular Pharmacology Branch, DTP, NCI, 2024).

Tested on: 253994-281-T-J1-PDC KRAS-mutant spheroids with HUVEC/MSC, viability
Assay: Anticancer human tumor 253994-281-T-J1-PDC patient-derived colorectal carcinoma cell line growth inhibition [KRAS2]
Settings: for IC50: curve of first compound; for viability, T/C: stronger effect = lower value
Method in brief: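 KRAS-mutant tumor cells were grown as spheroids with HUVEC endothelial cells and human MSCs as stroma. Targeted agents were tested alone and with KRAS pathway inhibitors. Doses started at or near clinical Cmax, or 10 microM, descending half-log.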

[1] = second compound 0.1 µM, first compound 0.01 µM
[2] = second compound 0.1 µM, first compound 0.0316 µM
[3] = second compound 0.1 µM, first compound 0.1 µM
[4] = second compound 0.1 µM, first compound 0.316 µM
[5] = second compound 0.1 µM, first compound 1 µM
[6] = second compound 0.1 µM, first compound 3.16 µM
[7] = second compound 0.316 µM, first compound 0.01 µM
[8] = second compound 0.316 µM, first compound 0.0316 µM
[9] = second compound 0.316 µM, first compound 0.1 µM
[10] = second compound 0.316 µM, first compound 0.316 µM
[11] = second compound 0.316 µM, first compound 1 µM
[12] = second compound 0.316 µM, first compound 3.16 µM
[13] = second compound 1 µM, first compound 0.01 µM
[14] = second compound 1 µM, first compound 0.0316 µM
[15] = second compound 1 µM, first compound 0.1 µM
[16] = second compound 1 µM, first compound 0.316 µM
[17] = second compound 1 µM, first compound 1 µM
[18] = second compound 1 µM, first compound 3.16 µM
[19] = second compound 3.16 µM, first compound 0.01 µM
[20] = second compound 3.16 µM, first compound 0.0316 µM
[21] = second compound 3.16 µM, first compound 0.1 µM
[22] = second compound 3.16 µM, first compound 0.316 µM
[23] = second compound 3.16 µM, first compound 1 µM
[24] = second compound 3.16 µM, first compound 3.16 µM
[25] = second compound 0.0316 µM, first compound 0.01 µM
[26] = second compound 0.0316 µM, first compound 0.0316 µM
[27] = second compound 0.0316 µM, first compound 0.1 µM
[28] = second compound 0.0316 µM, first compound 0.316 µM
[29] = second compound 0.0316 µM, first compound 1 µM
[30] = second compound 0.0316 µM, first compound 3.16 µM
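Further: spheroids exposed to agents for seven days before readout.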
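Wherever viability, T/C is given: percent of DMSO vehicle control viability.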

SMILES	IC50 (second compound 0.1 µM) [nM]	IC50 (second compound 0.316 µM) [nM]	IC50 (second compound 1 µM) [nM]	IC50 (second compound 3.16 µM) [nM]	viability, T/C [1] [%]	viability, T/C [2] [%]	viability, T/C [3] [%]	viability, T/C [4] [%]	viability, T/C [5] [%]	viability, T/C [6] [%]	viability, T/C [7] [%]	viability, T/C [8] [%]	viability, T/C [9] [%]	viability, T/C [10] [%]	viability, T/C [11] [%]	viability, T/C [12] [%]	viability, T/C [13] [%]	viability, T/C [14] [%]	viability, T/C [15] [%]	viability, T/C [16] [%]	further results
CC1COCCN1c1cc(-c2ccnn2C)c2ccnc(-c3ccn[nH]3)c2n1 (stereo not given) + COc1cc2nc(C)nc(NC(C)c3cc(N)cc(C(F)(F)F)c3)c2cc1OC1CCOC1	> 3160	169	151	99.6	95.2	72.8	65.3	47.9	52.5	55.1	88.4	83.2	55.2	39.1	37.6	55.6	92.5	74.8	56.5	35	IC50 (second compound 10 µM): 96.2 nM; viability, T/C [17]: 40.4%; viability, T/C [18]: 54.5%; viability, T/C [19]: 80.6%; viability, T/C [20]: 82.5%; viability, T/C [21]: 49.9%; viability, T/C [22]: 37.2%; viability, T/C [23]: 39%; viability, T/C [24]: 49.2%; viability, T/C (second compound 10 µM, first compound 0.01 µM): 75.7%; viability, T/C (second compound 10 µM, first compound 0.0316 µM): 74.6%; viability, T/C (second compound 10 µM, first compound 0.1 µM): 49.2%; viability, T/C (second compound 10 µM, first compound 0.316 µM): 31.8%; viability, T/C (second compound 10 µM, first compound 1 µM): 41%; viability, T/C (second compound 10 µM, first compound 3.16 µM): 42.4%
CC(=O)OC12COC1CC(O)C1(C)C(=O)C(O)C3=C(C)C(OC(=O)C(O)C(NC(=O)OC(C)(C)C)c4ccccc4)CC(O)(C(OC(=O)c4ccccc4)C21)C3(C)C (stereo not given) + C=CC(=O)N1CCN(c2nc(OCC3CCCN3C)nc3c2CCN(c2cccc4cccc(C)c24)C3)CC1CC#N	28	27.6	27.6	27.3	80.4	46.6	31.7	40	27.6	28	85.4	44.5	33.5	29	27.2	26.4	77.7	46.3	28.9	26	IC50 (second compound 0.0316 µM): 32.8 nM; viability, T/C [25]: 96.4%; viability, T/C [26]: 50.4%; viability, T/C [27]: 33.6%; viability, T/C [28]: 28.1%; viability, T/C [29]: 28%; viability, T/C [30]: 33.7%; viability, T/C [17]: 28.1%; viability, T/C [18]: 29.5%; viability, T/C [19]: 79.3%; viability, T/C [20]: 45.7%; viability, T/C [21]: 31.4%; viability, T/C [22]: 27.5%; viability, T/C [23]: 29.3%; viability, T/C [24]: 28.1%
CC1COCCN1c1cc(-c2ccnn2C)c2ccnc(-c3ccn[nH]3)c2n1 (stereo not given) + C=CC(=O)N1CCN(c2nc(OCC3CCCN3C)nc3c2CCN(c2cccc4cccc(C)c24)C3)CC1CC#N	> 3160	> 3160	> 3160	129	94.1	93.1	90.7	59.7	66.9	60.6	117	93	83	53.8	55.7	62.9	101	94.4	75.5	48.8	IC50 (second compound 0.0316 µM): > 3160 nM; viability, T/C [25]: 115%; viability, T/C [26]: 101%; viability, T/C [27]: 87.1%; viability, T/C [28]: 67.6%; viability, T/C [29]: 60.5%; viability, T/C [30]: 64.5%; viability, T/C [17]: 51%; viability, T/C [18]: 59.2%; viability, T/C [19]: 80.2%; viability, T/C [20]: 90%; viability, T/C [21]: 53.3%; viability, T/C [22]: 30.6%; viability, T/C [23]: 37.8%; viability, T/C [24]: 47.8%
